These results are taken from publication PMC11684029, “Discovery of VU6024578/BI02982816: An mGlu1 Positive Allosteric Modulator with Efficacy in Preclinical Antipsychotic and Cognition Models” (Journal of Medicinal Chemistry, 2024).

By Cmax is commonly meant the highest concentration seen after dosing. Usually Tmax stands for the time from dosing to the highest level. As a reminder, the AUC is concentration integrated over time. The low end stands for less exposure, the high end for more exposure. For orientation: IC50 means the concentration needed to halve the response being measured. A low value points to greater potency.

Series [1] is described as follows: intrinsic clearance, predicted hepatic clearance. The class given is in vitro ADME, rat. Particulars: in vitro predicted hepatic clearance. As for the experimental part:
Human or rat hepatic microsomes (0.5 mg/mL) and 1 μM test compound were incubated in 100 mM potassium phosphate pH 7.4 buffer with 3 mM MgCl2 at 37 °C with constant shaking. After a 5 min preincubation, the reaction was initiated by addition of NADPH (1 mM). At selected time intervals (0, 3, 7, 15, 25, and 45 min), aliquots were taken and subsequently placed into a 96-well plate containing cold acetonitrile with internal standard (50 ng/mL carbamazepine). Plates were then centrifuged at 3000 rcf (4 °C) for 10 min, and the supernatant was transferred to a separate 96-well plate and diluted 1:1 with water for LC/MS/MS analysis. The in vitro half-life (T1/2, min, eq 1), intrinsic clearance (CLint, mL/min/kg, eq 2) and subsequent predicted hepatic clearance (CLhep, mL/min/kg, eq 3) was determined employing the following equations: [drawing 2] 1 where k represents the slope from linear regression analysis of the natural log percent remaining of test compound as a function of incubation time [drawing 3] 2
^ascale-up factors: of 20 (human) or 45 (rat) [drawing 4] 3 where Qh (hepatic blood flow, mL/min/kg) is 21 (human) or 70 (rat).

The nature of series [2]: rat IV/PO PK crossover study. The class given is in vivo. From the text: (§1) Thus, 19d was a stable chemical entity in vivo. […] Overall, the rat PK and CNS penetration was supportive of in vivo work and progression down the development flow-chart.
The next series addresses hERG (Homo sapiens, UniProt Q12809). Description: hERG manual patch clamp assay. The class given is cell-based. (In general: The hERG channel carries a current that helps repolarise heart muscle cells.)
Series [3] is described as follows: plasma protein binding, equilibrium dialysis. The class given is in vitro ADME, human. Particulars: fraction unbound. As for the experimental part:
The protein binding of each compound was determined in plasma via equilibrium dialysis employing RED Plates (ThermoFisher Scientific, Rochester, NY). Plasma was added to the 96 well plate containing test compound and mixed thoroughly for a final concentration of 5 μM. Subsequently, an aliquot of the plasma-compound mixture was transferred to the cis chamber (red) of the RED plate, with an phosphate buffer (25 mM, pH 7.4) in the trans chamber. The RED plate was sealed and incubated for 4 h at 37 °C with shaking. At completion, aliquots from each chamber were diluted 1:1 with either plasma (cis) or buffer (trans) and transferred to a new 96 well plate, at which time ice-cold acetonitrile containing internal standard (50 ng/mL carbamazepine) (2 volumes) was added to extract the matrices. The plate was centrifuged (3000 rcf, 10 min) and supernatants transferred and diluted 1:1 (supernatant: water) into a new 96 well plate, which was then sealed in preparation for LC/MS/MS analysis. Each compound was assayed in triplicate within the same 96-well plate. Fraction unbound was determined using the following equation [drawing 1]
In general terms: Equilibrium dialysis compares concentrations on both sides of a semipermeable membrane.

A short description of the next series: IV dog PK. The class given is in vivo. The following applies: 0.5 mg/kg IV; for C0: plasma. As for the experimental part: Deeper profiling began with IV dog PK (0.5 mg/kg, n = 3 male beagles). […] Was this a mechanism-based toxicity in dog? Could there be dog-specific pharmacology of mGlu1 activation? Were these AEs derived from the 19d chemotype? Could a mGlu1/mGlu5 heterodimer be responsible for the observed AEs? […] In an attempt to address the chemotype question, we evaluated PAM 4 (VU6004909),[8] an early generation rodent in vivo tool compound, for the first time in dog PK. […] of the study with 19d, PAM 4 produced no AEs in dog. […] Therefore, more molecular pharmacology and PK studies as well as additional chemically distinct mGlu1 PAM chemotypes are required to understand the AEs elicited by an mGlu1 PAM in dogs, an otherwise very promising target for the treatment of schizophrenia.

For series [4], the system named is rats. Description: adverse events in rats. The following applies: much higher exposures than in dog. The class given is in vivo, rat.
The subject of series [5] is rats. Description: rat AHL Cmax versus Ctrough study. In kind it is in vivo. As for the experimental part: Based on these positive behavioral data and the clear PK/PD relationship tied to achieving free brain levels at, or above, the mGlu1 PAM EC50, we next wanted to define the role of Cmax versus Ctrough drug (19d) concentrations in driving the PK/PD relationship. To accomplish this, pretreatment times and doses were calculated based upon previous PK (see Supporting Information Figure S3)[20] data to target free brain concentrations at and below the in vitro EC50 at the time of amphetamine challenge. Rats were pretreated with 3 mg/kg 19d or vehicle after habituation to the locomotor chambers are described in Figure 9A. Rats pretreated with 19d (10–60 mg/kg) or vehicle were administered compound prior to starting the amphetamine-induced hyperlocomotion experiment as depicted in Figure 9B-D. Ambulations were evaluated for 90 min post amphetamine treatment for all dosing groups. Pretreatment of 19d, chamber habituation, amphetamine treatment and ambulation recording times are outlined for each dosing group in Figure 9. Blood and brain samples were obtained at the end of testing (EOT) to determine 19d levels at the end of the study (Table 6).
The terminal free brain concentrations for this dosing group were 40 nM.
Figure 10 Amphetamine-induced hyperlocomotion in rats. A) 1 h pretreatment of 3 mg/kg 19d. B) 5 h pretreatment of 10 mg/kg 19d. C) 28.5 h pretreatment of 60 mg/kg 19d. Total ambulation from 95 to 180 min. *p < 0.05 compared to Vehicle + Amphetamine treated animals. TEXT PRINTED IN THE PICTURE: (A) 19d: Mean % reversal 27.3% * (3 mg/kg 19d + AMP) | (B) 19d: Mean % reversal 25.1% * (10 mg/kg 19d + AMP) | (C) 19d: Mean % reversal 7.3% (60 mg/kg 19d + AMP) DOUBTS OF THE COPYIST ABOUT THIS PICTURE: 19d, panel A, Mean % reversal: small print, 27.3% could be 27.8% / 19d, panel B, Mean % reversal: small print, 25.1% could be 26.1% / 19d, panel C, Mean % reversal: small print, 7.3% could be 7.8%

The subject of a further series is human mGlu2–5,7,8. Description: mGlu subtype selectivity. The class given is cell-based. As for the experimental part: (§2) Over the course of the mGlu1 PAM program, 19d became an assay standard and was assayed multiple times, affording refined potency values.[20]
In the next series the test system is rat mGlu2–5,7,8. Description: mGlu subtype selectivity. In kind it is cell-based. Particulars: inactive. As for the experimental part:
as §2

The nature of a further series: rat IP PBL study. In kind it is in vivo. The following applies: 3 mg/kg IP, at Tmax.
Description: as §1

Each structure is given as a SMILES string. Several values for one entry are separate records, joined by “and”; a condition that tells them apart may be missing. Identical values can stand only once. Like-named read-outs stand apart in the source and are kept apart here.

Chain of hERG (Q12809 whole entry): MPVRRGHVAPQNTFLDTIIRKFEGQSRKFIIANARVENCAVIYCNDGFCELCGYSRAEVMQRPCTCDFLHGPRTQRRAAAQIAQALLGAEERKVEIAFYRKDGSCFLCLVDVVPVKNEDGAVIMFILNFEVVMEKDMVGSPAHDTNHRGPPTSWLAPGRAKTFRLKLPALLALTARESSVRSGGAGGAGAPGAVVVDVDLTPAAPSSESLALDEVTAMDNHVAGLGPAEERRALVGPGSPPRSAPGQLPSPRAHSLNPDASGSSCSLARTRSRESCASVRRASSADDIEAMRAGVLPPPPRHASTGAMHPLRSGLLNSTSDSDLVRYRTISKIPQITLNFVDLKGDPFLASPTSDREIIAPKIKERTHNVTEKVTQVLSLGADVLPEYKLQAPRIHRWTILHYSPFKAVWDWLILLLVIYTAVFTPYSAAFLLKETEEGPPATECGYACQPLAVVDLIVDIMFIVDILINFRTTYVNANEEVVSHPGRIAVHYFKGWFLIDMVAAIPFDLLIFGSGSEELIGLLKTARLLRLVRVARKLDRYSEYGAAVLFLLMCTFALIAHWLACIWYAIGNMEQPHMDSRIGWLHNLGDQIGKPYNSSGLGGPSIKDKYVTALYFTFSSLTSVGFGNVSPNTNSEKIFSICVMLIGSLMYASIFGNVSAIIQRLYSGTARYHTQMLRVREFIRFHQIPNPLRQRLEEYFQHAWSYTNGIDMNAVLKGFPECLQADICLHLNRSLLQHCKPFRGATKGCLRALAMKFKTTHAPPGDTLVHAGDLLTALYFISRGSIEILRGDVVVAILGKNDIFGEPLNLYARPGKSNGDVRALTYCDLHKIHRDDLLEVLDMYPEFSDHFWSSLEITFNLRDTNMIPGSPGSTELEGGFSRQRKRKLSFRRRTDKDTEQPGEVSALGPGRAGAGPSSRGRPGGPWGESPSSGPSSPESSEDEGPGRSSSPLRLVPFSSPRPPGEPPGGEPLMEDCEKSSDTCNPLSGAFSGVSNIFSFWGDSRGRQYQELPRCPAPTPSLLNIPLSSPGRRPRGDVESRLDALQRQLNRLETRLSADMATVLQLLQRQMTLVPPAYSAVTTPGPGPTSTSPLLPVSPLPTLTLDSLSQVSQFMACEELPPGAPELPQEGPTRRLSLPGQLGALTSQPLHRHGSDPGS

Turning to `Cn1nc(-c2ccnn2C)cc1CNC(=O)c1cc(-c2ccco2)ccc1Cl` [Compound 19d, 2-Chloro-N-((1,2′-dimethyl-1H,2’H-[3,3′-bipyrazol]-5-yl)methyl)-5-(furan-2-yl)benzamide], the “CLhep, rat” value in series [1] is 39 mL/min/kg and 39.3 mL/min/kg. In addition, in [2] (1 mg/kg IV), the Vss was 1.78 L/kg, the “plasma clearance (CLp)” value worked out at 8.3 mL/min/kg and the t1/2 came out at 3.9 h. Besides, in [2] (PO 10% tween 80), the “oral bioavailability (%F)” value was 100%. Also, in series [2] (PO arm), the Cmax was 4150 ng/mL and the Tmax was 2 h. In [2] (plasma, PO arm), this molecule had an AUC of 24600 ng·h/mL. The molecule also came in with an IC50 against hERG greater than 10 µM. The molecule also came in with a human fuplasma in series [3] of 0.03. In the series “IV dog PK”, this molecule registered a CLp of 5.4 mL/min/kg, a Vss of 0.92 L/kg and a t1/2 of 3.6 h. Moreover, in “IV dog PK” (read-out: C0 exposure, total), the C0 is 2050 nM. Further, the C0 in the series “IV dog PK” (male, beagle, iv, 0.5 mg/kg, read-out: C0 exposure, unbound) amounted to 80 nM. The “adverse events (AEs) in rats” value in the series with rats [4] was “no AEs”. In the series with rats [5] (3 mg/kg, 1 h prior to amphetamine), the “effect on AHL, in words” value is listed as “significantly reduced”. The “effect on AHL, in words” value in the series with rats [5] (10 mg/kg, 5 h before amphetamine) is given as “significantly reduced”. The “reduction of locomotor activity after amphetamine, in words” value in the series with rats [5] (60 mg/kg, 28.5 h before amphetamine) is on record as “not demonstrated”. Also, the “activity against human mGlu2–5,7,8” value in the series on human mGlu2–5,7,8 (inactive) is greater than 30 µM. Moreover, in the series with human mGlu2–5,7,8 (species not given), the “activity on mGlu2–5,7,8, in words” value is “inactive”. Also, the “activity against rat mGlu2–5,7,8” value with rat mGlu2–5,7,8 is greater than 30 µM. Further, the “Br[unbound]” value in the series “rat IP PBL study” amounted to 68 nM.
